This note sets out measurements from patent US7462629B2, “Immunosuppressant compounds and compositions” (IRM LLC, priority 2003, dated 2008).

The subject of one assay is blood lymphocytes. The assay can be described thus: Measurement of circulating lymphocytes (blood lymphocyte depletion). The assay is classed as in vivo, Mice (C57bl/6 male). Particulars: Mus musculus, mice, oral gavage, blood collected 6 and 24 hours after administration, read-out: ED50 (effective dose for 50% of blood lymphocyte depletion). The method, then:
C. In Vivo: Screening Assays for Measurement of Blood Lymphocyte Depletion and Assessment of Heart Effect
Measurement of circulating lymphocytes: Compounds are dissolved in DMSO and diluted to obtain a final concentration of 4% DMSO (v/v, final concentration) and then further diluted in a constant volume of Tween80 25%/H2O, v/v. Tween80 25%/H2O (200 μl), 4% DMSO, and FTY720 (10 μg) are included as negative and positive controls, respectively. Mice (C57bl/6 male, 6-10 week-old) are administered 250-300 μL of compound solution orally by gavages under short isoflurane anesthesia.
Blood is collected from the retro-orbital sinus 6 and 24 hours after drug administration under short isoflurane anesthesia. Whole blood samples are subjected to hematology analysis. Peripheral lymphocyte counts are determined using an automated analyzer. Subpopulations of peripheral blood lymphocytes are stained by fluorochrome-conjugated specific antibodies and analyzed using a fluorescent activating cell sorter (Facscalibur). Two mice are used to assess the lymphocyte depletion activity of each compound screened. The result is an ED50, which is defined as the effective dose required displaying 50% of blood lymphocyte depletion.

The next assay deals with T1, human EDG-1 (Homo sapiens, UniProt P21453).
T1 construct: expressed in transfected cells
T1 sequence (P21453 whole entry): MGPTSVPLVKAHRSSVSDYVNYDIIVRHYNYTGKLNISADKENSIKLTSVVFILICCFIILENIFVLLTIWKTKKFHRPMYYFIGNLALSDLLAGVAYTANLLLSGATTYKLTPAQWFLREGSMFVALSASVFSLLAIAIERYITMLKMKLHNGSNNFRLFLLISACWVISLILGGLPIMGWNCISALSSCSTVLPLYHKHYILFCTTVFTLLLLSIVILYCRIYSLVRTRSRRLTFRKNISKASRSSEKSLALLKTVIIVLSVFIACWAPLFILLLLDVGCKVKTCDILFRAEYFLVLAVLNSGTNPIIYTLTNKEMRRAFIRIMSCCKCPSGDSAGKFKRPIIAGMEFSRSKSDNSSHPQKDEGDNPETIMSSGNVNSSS
Nature of the assay: EDG-1 (S1P1) GTP [γ-35S] binding assay, membranes from CHO cells. In kind it is biochemical. Particulars: CHO membranes expressing human EDG-1. On the procedure:
(§1) A. In Vitro: GPCR Activation Assay Measuring GTP [γ-^35S] Binding to Membranes Prepared from CHO Cells Expressing Human EDG Receptors
EDG-1 (S1P1) GTP [γ-^35S] binding assay: Homogenized membranes are prepared from CHO cell clones stably expressing a human EDG-1 N-terminal c-myc tag. Cells are grown in suspension in two 850 cm^2 roller bottles for three or fours days before harvesting. The cells are centrifuged down, washed once with cold PBS, and resuspended in ≦20 ml of Buffer A (20 mM HEPES, pH 7.4, 10 mM EDTA, EDTA-free complete protease inhibitor cocktail [1 tablet/25 ml]). The cell suspension is homogenized on ice, using a Polytron homogenizer at 30000 rpm at three intervals of 15 seconds each. The homogenate is first centrifuged at 2000 rpm on a tabletop low speed centrifuge for 10 minutes. The supernatant, after passing through a cell strainer, is then re-centrifuged at 50,000×g for 25 minutes at 4° C. The pellet is resuspended into buffer B (15% glycerol, 20 mM HEPES, pH 7.4, 0.1 mM EDTA, EDTA-free complete protease inhibitor cocktail [1 tablet/10 ml]). Protein concentration of the prep is determined using the BCA Protein Assay kit (Pierce) using BSA as standard. The membranes are aliquoted and kept frozen at −80° C.
Solutions of test compounds ranging from 10 mM to 0.01 nM are prepared in DMSO. S1P is diluted in 4% BSA solution as positive controls. […]

For assay [1], the system named is EDG-3, EDG-5, EDG-6 and EDG-8. The assay can be described thus: EDG-3, -5, -6 and -8 GTP [γ-35S] binding assays (selectivity versus EDG-1). In kind it is biochemical, human. The method, then: as §1
For each membrane preparation, titration experiments are first run with S1P control to determine the optimal amount of membranes to be added per assay well. […] For example, 3-[6-(4-cyclohexyl-3-trifluoromethyl-benzyloxy)-3,4-dihydro-1H-isoquinolin-2-yl]-propionic acid (compound 9) has an EC50 of 0.2 nM in the above assay and is at least 1000 fold selective for EDG-1 compared to one or more of the other receptors including EDG-3, EDG-5, EDG-6 and EDG-8.

A word on the ED50: it is the dose at which the effect has come halfway, by size or by number of responders. By EC50 is commonly meant the midpoint of the concentration-response curve. A higher EC50 goes with lower potency in that assay. With `O=C(O)CCN1CCc2cc(OCc3ccc(C4CCCCC4)c(C(F)(F)F)c3)ccc2C1` [Compound 9, 3-[6-(4-cyclohexyl-3-trifluoromethyl-benzyloxy)-3,4-dihydro-1H-isoquinolin-2-yl]-propionic acid], in the assay with blood lymphocytes, the ED50 stood at 0.2 mg/kg. This molecule also returned an EC50 at human EDG-1 of 0.2 nM. Also, the “selectivity for EDG-1 compared to one or more of EDG-3, EDG-5, EDG-6 and EDG-8” value in assay [1] was “at least 1000 fold”.
